Results from publication PMC9571063 (Molecules, 2022).
Like-named read-outs stand apart in the source and are kept apart here.

What was measured:
YANK1 = biological target: T1, YANK1 (Homo sapiens, UniProt Q8WU08); assay: KINOMEscan; assay type: binding; details: read-out: Percent Control
T1 construct: purchased Eurofins (KINOMEscan, DiscoverX)

ERK8 = biological target: T2, ERK8 (Homo sapiens, UniProt Q8TD08); assay: KINOMEscan; assay type: binding; details: read-out: Percent Control
T2 construct: purchased Eurofins DiscoverX KINOMEscan (scanMAX 468)

KIT(A829P) = biological target: T3, KIT(A829P) (Homo sapiens, UniProt P10721, A829P); assay: KINOMEscan; assay type: binding; details: read-out: Percent Control
T3 construct: purchased Eurofins DiscoverX KINOMEscan (scanMAX 468)

Hs_HASPIN = biological target: T4, Hs_HASPIN (Homo sapiens, UniProt Q8TF76); set-up: method as in ref 13 (a number printed in a supplementary file, which may have a reference list of its own: not looked up in the article's list); details: DB18, cited from earlier work
T4 construct: host or cells: bacteria
T4 sequence (Q8TF76 1-798): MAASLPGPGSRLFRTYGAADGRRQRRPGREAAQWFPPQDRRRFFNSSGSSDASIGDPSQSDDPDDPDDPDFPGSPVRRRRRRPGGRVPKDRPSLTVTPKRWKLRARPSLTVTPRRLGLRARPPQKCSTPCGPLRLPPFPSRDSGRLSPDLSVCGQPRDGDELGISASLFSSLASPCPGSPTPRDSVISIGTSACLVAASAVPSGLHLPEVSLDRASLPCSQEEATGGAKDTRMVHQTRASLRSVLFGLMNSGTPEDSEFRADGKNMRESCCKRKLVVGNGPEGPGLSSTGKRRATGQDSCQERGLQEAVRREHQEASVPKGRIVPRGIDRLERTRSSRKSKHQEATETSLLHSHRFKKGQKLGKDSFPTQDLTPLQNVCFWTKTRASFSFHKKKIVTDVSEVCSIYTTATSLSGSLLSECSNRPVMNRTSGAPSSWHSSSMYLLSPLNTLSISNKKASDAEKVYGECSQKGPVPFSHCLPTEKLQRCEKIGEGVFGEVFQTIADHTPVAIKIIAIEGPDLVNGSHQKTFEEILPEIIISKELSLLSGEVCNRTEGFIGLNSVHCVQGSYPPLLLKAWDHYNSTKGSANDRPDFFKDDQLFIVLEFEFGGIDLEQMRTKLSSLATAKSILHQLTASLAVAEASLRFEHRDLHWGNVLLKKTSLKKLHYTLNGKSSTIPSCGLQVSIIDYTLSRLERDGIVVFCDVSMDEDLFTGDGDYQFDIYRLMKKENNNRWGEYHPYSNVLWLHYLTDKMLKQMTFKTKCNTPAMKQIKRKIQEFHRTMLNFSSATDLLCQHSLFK

DDR2 = biological target: T5, DDR2 (Homo sapiens, UniProt Q16832); assay: KINOMEscan; assay type: binding; details: read-out: Percent Control
T5 construct: purchased Eurofins DiscoverX KINOMEscan (scanMAX 468)

PFTAIRE2 = biological target: T6, PFTAIRE2 (Homo sapiens, UniProt Q96Q40); assay: KINOMEscan; assay type: binding; details: read-out: Percent Control
T6 construct: purchased Eurofins DiscoverX KINOMEscan (scanMAX 468)

TXK = biological target: T7, TXK (Homo sapiens, UniProt P42681); assay: KINOMEscan; assay type: binding; details: read-out: Percent Control
T7 construct: purchased Eurofins DiscoverX KINOMEscan (scanMAX 468)

CAMK2G = biological target: T8, CAMK2G (Homo sapiens, UniProt Q13555); assay: KINOMEscan; assay type: binding; details: read-out: Percent Control
T8 construct: purchased Eurofins DiscoverX KINOMEscan (scanMAX 468)

[1] = biological target: T9, ABL1(F317I)-nonphosphorylated (Homo sapiens, UniProt P00519, F317I); assay: KINOMEscan; assay type: binding; details: read-out: Percent Control
T9 construct: purchased Eurofins DiscoverX KINOMEscan (scanMAX 468)

NEK9 = biological target: T10, NEK9 (Homo sapiens, UniProt Q8TD19); assay: KINOMEscan; assay type: binding; details: read-out: Percent Control
T10 construct: purchased Eurofins DiscoverX KINOMEscan (scanMAX 468)

MRCKA = biological target: T11, MRCKA (Homo sapiens, UniProt Q5VT25); assay: KINOMEscan; assay type: binding; details: read-out: Percent Control
T11 construct: purchased Eurofins DiscoverX KINOMEscan (scanMAX 468)

EPHB3 = biological target: T12, EPHB3 (Homo sapiens, UniProt P54753); assay: KINOMEscan; assay type: binding; details: read-out: Percent Control
T12 construct: purchased Eurofins DiscoverX KINOMEscan (scanMAX 468)

NDR1 = biological target: T13, NDR1 (Homo sapiens, UniProt Q15208); assay: KINOMEscan; assay type: binding; details: read-out: Percent Control
T13 construct: purchased Eurofins DiscoverX KINOMEscan (scanMAX 468)

PIK3C2B = biological target: T14, PIK3C2B (Homo sapiens, UniProt O00750); assay: KINOMEscan; assay type: binding; details: read-out: Percent Control
T14 construct: purchased Eurofins DiscoverX KINOMEscan (scanMAX 468)

[2] = biological target: T15, RSK4(Kin.Dom.2-C-terminal) (Homo sapiens, UniProt Q9UK32); assay: KINOMEscan; assay type: binding; details: read-out: Percent Control
T15 construct: RSK4(Kin.Dom.2-C-terminal); purchased Eurofins DiscoverX KINOMEscan (scanMAX 468)

KIT(V559D) = biological target: T16, KIT(V559D) (Homo sapiens, UniProt P10721, V559D); assay: KINOMEscan; assay type: binding; details: read-out: Percent Control
T16 construct: purchased Eurofins DiscoverX KINOMEscan (scanMAX 468)

CAMK1B = biological target: T17, CAMK1B (Homo sapiens, UniProt Q6P2M8); assay: KINOMEscan; assay type: binding; details: read-out: Percent Control
T17 construct: purchased Eurofins DiscoverX KINOMEscan (scanMAX 468)

BMPR2 = biological target: T18, BMPR2 (Homo sapiens, UniProt Q13873); assay: KINOMEscan; assay type: binding; details: read-out: Percent Control
T18 construct: purchased Eurofins DiscoverX KINOMEscan (scanMAX 468)

PKN1 = biological target: T19, PKN1 (Homo sapiens, UniProt Q16512); assay: KINOMEscan; assay type: binding; details: read-out: Percent Control
T19 construct: purchased Eurofins DiscoverX KINOMEscan (scanMAX 468)

MET(M1250T) = biological target: T20, MET(M1250T) (Homo sapiens, UniProt P08581, M1250T); assay: KINOMEscan; assay type: binding; details: read-out: Percent Control
T20 construct: purchased Eurofins DiscoverX KINOMEscan (scanMAX 468)

CDKL1 = biological target: T21, CDKL1 (Homo sapiens, UniProt Q00532); assay: KINOMEscan; assay type: binding; details: read-out: Percent Control
T21 construct: purchased Eurofins DiscoverX KINOMEscan (scanMAX 468)

PYK2 = biological target: T22, PYK2 (Homo sapiens, UniProt Q14289); assay: KINOMEscan; assay type: binding; details: read-out: Percent Control
T22 construct: purchased Eurofins DiscoverX KINOMEscan (scanMAX 468)

ANKK1 = biological target: T23, ANKK1 (Homo sapiens, UniProt Q8NFD2); assay: KINOMEscan; assay type: binding; details: read-out: Percent Control
T23 construct: purchased Eurofins DiscoverX KINOMEscan (scanMAX 468)

SIK = biological target: T24, SIK (Homo sapiens, UniProt P57059); assay: KINOMEscan; assay type: binding; details: read-out: Percent Control
T24 construct: purchased Eurofins DiscoverX KINOMEscan (scanMAX 468)

MARK1 = biological target: T25, MARK1 (Homo sapiens, UniProt Q9P0L2); assay: KINOMEscan; assay type: binding; details: read-out: Percent Control
T25 construct: purchased Eurofins DiscoverX KINOMEscan (scanMAX 468)

MET(Y1235D) = biological target: T26, MET(Y1235D) (Homo sapiens, UniProt P08581, Y1235D); assay: KINOMEscan; assay type: binding; details: read-out: Percent Control
T26 construct: purchased Eurofins DiscoverX KINOMEscan (scanMAX 468)

AAK1 = biological target: T27, AAK1 (Homo sapiens, UniProt Q2M2I8); assay: KINOMEscan; assay type: binding; details: read-out: Percent Control
T27 construct: purchased Eurofins DiscoverX KINOMEscan (scanMAX 468)

RET = biological target: T28, RET (Homo sapiens, UniProt P07949); assay: KINOMEscan; assay type: binding; details: read-out: Percent Control
T28 construct: purchased Eurofins DiscoverX KINOMEscan (scanMAX 468)

STK36 = biological target: T29, STK36 (Homo sapiens, UniProt Q9NRP7); assay: KINOMEscan; assay type: binding; details: read-out: Percent Control
T29 construct: purchased Eurofins DiscoverX KINOMEscan (scanMAX 468)

MYLK2 = biological target: T30, MYLK2 (Homo sapiens, UniProt Q9H1R3); assay: KINOMEscan; assay type: binding; details: read-out: Percent Control
T30 construct: purchased Eurofins DiscoverX KINOMEscan (scanMAX 468)

FLT3(K663Q) = biological target: T31, FLT3(K663Q) (Homo sapiens, UniProt P36888, K663Q); assay: KINOMEscan; assay type: binding; details: read-out: Percent Control
T31 construct: purchased Eurofins DiscoverX KINOMEscan (scanMAX 468)

T1 sequence (Q8WU08 whole entry): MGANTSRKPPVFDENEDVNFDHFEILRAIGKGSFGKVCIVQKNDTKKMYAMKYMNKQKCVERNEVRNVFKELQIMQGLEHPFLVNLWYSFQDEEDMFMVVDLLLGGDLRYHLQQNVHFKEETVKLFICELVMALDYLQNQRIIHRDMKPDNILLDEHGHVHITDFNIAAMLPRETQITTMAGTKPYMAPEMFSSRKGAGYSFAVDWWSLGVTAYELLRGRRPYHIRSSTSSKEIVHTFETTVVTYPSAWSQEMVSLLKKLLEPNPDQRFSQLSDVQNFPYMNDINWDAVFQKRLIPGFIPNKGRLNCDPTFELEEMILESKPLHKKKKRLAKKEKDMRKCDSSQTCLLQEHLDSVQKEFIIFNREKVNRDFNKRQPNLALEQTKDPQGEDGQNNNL
T15 sequence (Q9UK32 401-745 limits assumed): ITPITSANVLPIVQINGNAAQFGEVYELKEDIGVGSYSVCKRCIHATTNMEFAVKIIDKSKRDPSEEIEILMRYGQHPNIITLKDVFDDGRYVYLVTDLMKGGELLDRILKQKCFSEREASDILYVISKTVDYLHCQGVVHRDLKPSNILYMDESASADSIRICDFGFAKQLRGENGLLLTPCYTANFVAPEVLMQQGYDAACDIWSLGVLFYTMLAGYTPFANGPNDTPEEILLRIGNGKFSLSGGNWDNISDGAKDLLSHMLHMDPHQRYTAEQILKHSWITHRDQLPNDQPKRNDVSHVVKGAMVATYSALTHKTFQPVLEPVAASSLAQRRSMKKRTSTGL
T28 sequence (P07949 29-1114): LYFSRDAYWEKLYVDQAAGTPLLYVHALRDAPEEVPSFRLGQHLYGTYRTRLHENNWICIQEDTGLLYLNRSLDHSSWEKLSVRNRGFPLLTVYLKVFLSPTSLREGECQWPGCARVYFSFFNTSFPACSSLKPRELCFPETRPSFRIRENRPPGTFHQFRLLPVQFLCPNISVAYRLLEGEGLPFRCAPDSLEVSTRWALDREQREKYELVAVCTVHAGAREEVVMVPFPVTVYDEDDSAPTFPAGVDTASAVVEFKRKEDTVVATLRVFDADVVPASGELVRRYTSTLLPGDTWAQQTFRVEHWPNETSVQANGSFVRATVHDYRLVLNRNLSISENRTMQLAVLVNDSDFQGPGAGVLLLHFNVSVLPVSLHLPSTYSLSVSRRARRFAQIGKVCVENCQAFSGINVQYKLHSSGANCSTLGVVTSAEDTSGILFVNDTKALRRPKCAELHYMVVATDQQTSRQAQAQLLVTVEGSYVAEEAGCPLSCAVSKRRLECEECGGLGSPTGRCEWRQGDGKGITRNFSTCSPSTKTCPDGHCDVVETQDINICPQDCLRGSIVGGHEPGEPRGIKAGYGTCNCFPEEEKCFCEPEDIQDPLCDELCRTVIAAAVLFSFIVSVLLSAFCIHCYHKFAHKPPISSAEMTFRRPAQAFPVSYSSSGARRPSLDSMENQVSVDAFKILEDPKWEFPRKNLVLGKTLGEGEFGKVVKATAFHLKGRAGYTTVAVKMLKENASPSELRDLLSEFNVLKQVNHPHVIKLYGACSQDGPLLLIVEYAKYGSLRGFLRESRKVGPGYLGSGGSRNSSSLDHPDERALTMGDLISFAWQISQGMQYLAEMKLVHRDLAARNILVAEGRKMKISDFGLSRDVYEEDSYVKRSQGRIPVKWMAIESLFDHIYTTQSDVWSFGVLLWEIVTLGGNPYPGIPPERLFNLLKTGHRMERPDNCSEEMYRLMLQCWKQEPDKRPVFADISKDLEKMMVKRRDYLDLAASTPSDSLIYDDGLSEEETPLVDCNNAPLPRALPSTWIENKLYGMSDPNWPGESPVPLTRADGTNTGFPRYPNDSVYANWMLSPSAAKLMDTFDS
T7 sequence (P42681 whole entry): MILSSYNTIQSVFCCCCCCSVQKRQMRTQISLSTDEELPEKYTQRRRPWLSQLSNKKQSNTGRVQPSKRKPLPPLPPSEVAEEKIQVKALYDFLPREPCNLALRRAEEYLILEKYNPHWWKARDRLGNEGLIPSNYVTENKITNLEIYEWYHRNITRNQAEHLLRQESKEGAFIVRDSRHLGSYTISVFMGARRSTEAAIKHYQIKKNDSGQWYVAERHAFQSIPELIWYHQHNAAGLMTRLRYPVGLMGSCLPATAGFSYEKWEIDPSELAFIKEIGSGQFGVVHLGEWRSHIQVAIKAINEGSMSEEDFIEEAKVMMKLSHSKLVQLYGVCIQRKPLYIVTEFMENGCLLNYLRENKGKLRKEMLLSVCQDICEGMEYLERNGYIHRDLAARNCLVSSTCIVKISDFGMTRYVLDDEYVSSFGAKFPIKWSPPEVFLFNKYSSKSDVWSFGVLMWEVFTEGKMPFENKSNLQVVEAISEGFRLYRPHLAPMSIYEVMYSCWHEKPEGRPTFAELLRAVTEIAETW
T9 sequence (P00519 whole entry F317I): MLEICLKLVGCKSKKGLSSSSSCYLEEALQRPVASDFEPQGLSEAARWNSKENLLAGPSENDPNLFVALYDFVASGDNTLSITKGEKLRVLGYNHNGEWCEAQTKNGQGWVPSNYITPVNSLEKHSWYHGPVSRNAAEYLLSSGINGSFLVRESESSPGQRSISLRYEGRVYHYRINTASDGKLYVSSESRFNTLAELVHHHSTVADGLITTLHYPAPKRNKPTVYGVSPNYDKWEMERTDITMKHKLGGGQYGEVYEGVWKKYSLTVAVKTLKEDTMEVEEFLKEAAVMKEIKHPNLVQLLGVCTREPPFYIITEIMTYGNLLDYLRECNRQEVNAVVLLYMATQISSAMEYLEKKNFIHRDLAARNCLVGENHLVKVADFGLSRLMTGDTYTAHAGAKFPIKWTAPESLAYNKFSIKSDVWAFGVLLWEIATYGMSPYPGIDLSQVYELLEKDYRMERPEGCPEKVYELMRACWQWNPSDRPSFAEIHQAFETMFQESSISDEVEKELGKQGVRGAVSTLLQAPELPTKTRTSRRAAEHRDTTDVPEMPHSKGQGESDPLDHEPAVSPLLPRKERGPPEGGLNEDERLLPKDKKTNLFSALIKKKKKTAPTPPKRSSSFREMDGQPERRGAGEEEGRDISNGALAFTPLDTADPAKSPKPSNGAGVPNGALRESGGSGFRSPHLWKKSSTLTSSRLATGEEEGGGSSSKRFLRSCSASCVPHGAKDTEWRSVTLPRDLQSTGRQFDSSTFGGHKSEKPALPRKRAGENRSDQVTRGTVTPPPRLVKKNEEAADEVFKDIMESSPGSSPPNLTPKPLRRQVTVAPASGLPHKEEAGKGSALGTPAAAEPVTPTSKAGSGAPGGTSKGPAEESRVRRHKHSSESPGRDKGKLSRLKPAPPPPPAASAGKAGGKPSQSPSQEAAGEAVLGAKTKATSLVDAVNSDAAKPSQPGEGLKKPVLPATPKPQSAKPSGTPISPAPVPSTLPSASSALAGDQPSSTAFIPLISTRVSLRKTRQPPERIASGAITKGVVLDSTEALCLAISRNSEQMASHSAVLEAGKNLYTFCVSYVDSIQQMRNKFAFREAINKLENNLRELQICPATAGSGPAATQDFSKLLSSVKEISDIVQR
T24 sequence (P57059 whole entry): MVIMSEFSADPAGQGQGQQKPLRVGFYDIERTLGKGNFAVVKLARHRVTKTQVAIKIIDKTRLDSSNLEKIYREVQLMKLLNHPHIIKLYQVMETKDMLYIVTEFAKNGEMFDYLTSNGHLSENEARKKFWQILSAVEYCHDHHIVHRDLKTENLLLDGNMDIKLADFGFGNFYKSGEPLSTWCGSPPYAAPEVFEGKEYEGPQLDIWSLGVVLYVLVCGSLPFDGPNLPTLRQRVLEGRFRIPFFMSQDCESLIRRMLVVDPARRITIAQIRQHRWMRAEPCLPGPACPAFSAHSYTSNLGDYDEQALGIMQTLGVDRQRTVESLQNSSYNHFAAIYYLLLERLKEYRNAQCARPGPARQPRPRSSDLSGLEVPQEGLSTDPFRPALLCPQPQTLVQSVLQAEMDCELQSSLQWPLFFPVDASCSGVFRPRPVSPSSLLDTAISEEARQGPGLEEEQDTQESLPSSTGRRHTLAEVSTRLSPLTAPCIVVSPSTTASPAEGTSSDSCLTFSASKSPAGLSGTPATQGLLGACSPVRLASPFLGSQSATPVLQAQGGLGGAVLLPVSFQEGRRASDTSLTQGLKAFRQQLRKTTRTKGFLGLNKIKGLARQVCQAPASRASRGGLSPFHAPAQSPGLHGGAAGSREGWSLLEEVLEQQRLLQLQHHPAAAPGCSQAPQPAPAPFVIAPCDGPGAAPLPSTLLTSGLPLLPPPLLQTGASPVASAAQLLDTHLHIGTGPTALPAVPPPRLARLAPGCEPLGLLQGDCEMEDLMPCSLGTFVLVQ
T6 sequence (Q96Q40 whole entry): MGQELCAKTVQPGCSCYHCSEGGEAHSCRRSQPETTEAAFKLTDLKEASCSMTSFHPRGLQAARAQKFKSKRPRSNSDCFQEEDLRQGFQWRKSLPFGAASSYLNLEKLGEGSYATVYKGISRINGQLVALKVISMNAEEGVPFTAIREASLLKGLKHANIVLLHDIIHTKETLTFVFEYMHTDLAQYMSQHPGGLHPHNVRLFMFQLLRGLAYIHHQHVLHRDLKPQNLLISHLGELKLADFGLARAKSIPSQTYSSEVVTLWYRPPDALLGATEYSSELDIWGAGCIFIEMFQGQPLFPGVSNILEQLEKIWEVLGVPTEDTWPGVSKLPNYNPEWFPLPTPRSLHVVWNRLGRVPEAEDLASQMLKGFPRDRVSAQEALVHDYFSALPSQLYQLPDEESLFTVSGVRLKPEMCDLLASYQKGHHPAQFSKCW
T17 sequence (Q6P2M8 whole entry): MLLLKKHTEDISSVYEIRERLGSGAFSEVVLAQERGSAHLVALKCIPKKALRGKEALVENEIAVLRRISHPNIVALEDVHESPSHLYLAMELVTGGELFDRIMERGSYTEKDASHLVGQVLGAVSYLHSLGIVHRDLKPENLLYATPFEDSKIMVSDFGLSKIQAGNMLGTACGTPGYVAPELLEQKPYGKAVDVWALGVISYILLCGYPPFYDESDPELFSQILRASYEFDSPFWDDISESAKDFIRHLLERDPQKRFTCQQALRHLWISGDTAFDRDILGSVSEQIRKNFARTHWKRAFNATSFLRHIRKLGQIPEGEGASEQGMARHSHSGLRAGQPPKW

Structure (SMILES): Cc1ccc(-n2cc(COc3cccc4cnc(Nc5cccc(Cl)c5)nc34)nn2)c([N+](=O)[O-])c1 [DB18]
- remaining binding at 1 µM (YANK1): 100%
- remaining binding at 1 µM (ERK8): 95%
- remaining binding at 1 µM (KIT(A829P)): 100%
- % of residual activity Hs_HASPIN (Hs_HASPIN; 1 µM): 96%
- % of residual activity Hs_HASPIN (Hs_HASPIN; 10 µM): 94%
- remaining binding at 1 µM (DDR2): 100%
- remaining binding at 1 µM (PFTAIRE2): 95%
- remaining binding at 1 µM (TXK): 96%
- remaining binding at 1 µM (CAMK2G): 100%
- remaining binding at 1 µM [1]: 100%
- remaining binding at 1 µM (NEK9): 100%
- remaining binding at 1 µM (MRCKA): 100%
- remaining binding at 1 µM (EPHB3): 100%
- remaining binding at 1 µM (NDR1): 89%
- remaining binding at 1 µM (PIK3C2B): 100%
- remaining binding at 1 µM [2]: 100%
- remaining binding at 1 µM (KIT(V559D)): 100%
- remaining binding at 1 µM (CAMK1B): 86%
- remaining binding at 1 µM (BMPR2): 100%
- remaining binding at 1 µM (PKN1): 100%
- remaining binding at 1 µM (MET(M1250T)): 88%
- remaining binding at 1 µM (CDKL1): 88%
- remaining binding at 1 µM (PYK2): 100%
- remaining binding at 1 µM (ANKK1): 100%
- remaining binding at 1 µM (SIK): 95%
- remaining binding at 1 µM (MARK1): 99%
- remaining binding at 1 µM (MET(Y1235D)): 100%
- remaining binding at 1 µM (AAK1): 100%
- remaining binding at 1 µM (RET): 92%
- remaining binding at 1 µM (STK36): 100%
- remaining binding at 1 µM (MYLK2): 100%
- remaining binding at 1 µM (FLT3(K663Q)): 69%
